As usually defined, the Ki is a measure of affinity in units of concentration, obtained from inhibition or displacement.

Our source for the Ki values is patent US7361665B2, “Inhibitors of c-Jun N-terminal kinases (JNK) and other protein kinases” (Vertex Pharmaceuticals Incorporated, priority 2002, dated 2008).

Where only a bound is given, the exact number is not on record here.

The assay concerns the target T1, human Src kinase (Homo sapiens, UniProt P12931).
T1 construct: full length recombinant human Src kinase (from Upstate Biotechnology, cat. no. 14-117); purchased Upstate Biotechnology 14-117; host or cells: baculovirus-infected cells ('baculo viral cells')
The assay is described as follows: Src inhibition assay (radioactivity-based assay A or spectrophotometric assay B). The assay is classed as biochemical. The source says:
The compounds of this invention can be evaluated as inhibitors of human Src kinase using either a radioactivity-based assay or spectrophotometric assay.
The compounds can be assayed as inhibitors of full length recombinant human Src kinase (from Upstate Biotechnology, cat. no. 14-117) expressed and purified from baculo viral cells. Src kinase activity is monitored by following the incorporation of ^33P from ATP into the tyrosine of a random poly Glu-Tyr polymer substrate of composition, Glu:Tyr=4:1 (Sigma, cat. no. P-0275). The following are the final concentrations of the assay components: 0.05 M HEPES, pH 7.6, 10 mM MgCl2, 2 mM DTT, 0.25 mg/ml BSA, 10 μM ATP (1-2 μCi ^33P-ATP per reaction), 5 mg/ml poly Glu-Tyr, and 1-2 units of recombinant human Src kinase. In a typical assay, all the reaction components with the exception of ATP are pre-mixed and aliquoted into assay plate wells. […] The plates are sealed and the amount of radioactivity associated with the filters is quantified on a TopCount scintillation counter. The radioactivity incorporated is plotted as a function of the inhibitor concentration. […]
In a typical assay, all the reaction components with the exception of ATP are pre-mixed and aliquoted into assay plate wells. […] The absorbance change at 340 nm with time, the rate of the reaction, is monitored on a molecular devices plate reader. […]

T1 sequence (P12931 whole entry): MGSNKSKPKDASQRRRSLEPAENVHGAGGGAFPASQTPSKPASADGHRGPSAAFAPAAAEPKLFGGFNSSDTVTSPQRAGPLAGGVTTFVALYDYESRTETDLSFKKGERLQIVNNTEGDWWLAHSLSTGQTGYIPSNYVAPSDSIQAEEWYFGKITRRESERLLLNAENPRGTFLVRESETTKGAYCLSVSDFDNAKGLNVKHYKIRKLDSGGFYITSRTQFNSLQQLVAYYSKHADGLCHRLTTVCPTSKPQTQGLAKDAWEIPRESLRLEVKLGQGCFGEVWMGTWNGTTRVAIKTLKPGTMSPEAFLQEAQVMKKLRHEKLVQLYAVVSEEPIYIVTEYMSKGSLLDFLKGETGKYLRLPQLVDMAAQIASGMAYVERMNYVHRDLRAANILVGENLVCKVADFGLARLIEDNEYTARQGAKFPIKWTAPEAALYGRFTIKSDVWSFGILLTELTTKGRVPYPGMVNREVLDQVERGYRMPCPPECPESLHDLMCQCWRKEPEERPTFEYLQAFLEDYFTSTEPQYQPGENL

As for `Cc1nc(-c2cccs2)sc1-c1ccnc(Nc2ccc(S(N)(=O)=O)cc2)n1` [IIc-22], the inhibition constant (Ki) is less than 100 nM.
